Measurements published in patent publication US20110009616A1, “AGENT FOR PREVENTING ARTERIOSCLEROSIS” (priority 2006, published 2011).
Read-outs that look alike come from different tables or passages of the source.

Experiments:
[1] = rat; Non-patent Document 16; cited from earlier work
[2] = target: bLOX-1 (Bos taurus, UniProt P79391); assay: Plate assay: binding of oxidized LDL to recombinant bLOX-1 (Test Example 1); design: 6xHis (N); made in house; host or cells: E. coli; species or system bovine
bLOX-1, sequence (P79391 57-270 limits assumed): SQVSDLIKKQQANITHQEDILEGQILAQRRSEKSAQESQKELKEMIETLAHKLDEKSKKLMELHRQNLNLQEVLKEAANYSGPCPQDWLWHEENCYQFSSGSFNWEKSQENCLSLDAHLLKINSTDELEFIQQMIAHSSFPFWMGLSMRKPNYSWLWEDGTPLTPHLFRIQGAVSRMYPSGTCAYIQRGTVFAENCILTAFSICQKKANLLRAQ
Experimental: A LOX-1 antagonist activity of the agent for preventing arteriosclerosis obtained in the above-mentioned Example was evaluated on a LOX-1 binding inhibition rate to oxidized LDL using a recombinant LOX-1 protein obtained from E. coli.
As for the recombinant LOX-1, in cDNA of LOX-1 derived from bovine (bLOX-1) or derived from human (hLOX-1), a sequence to the C-terminal removing a transmembrane region was inserted into a pQE30 vector having a 6-histidine tag sequence (6×His) at the N-terminal (manufactured by Qiagen) so as to have a sequence aligned to a translation frame. The vector was transformed into E. coli able to be controlled by T5 promoter and the expression of each LOX-1 was induced under induction of 1 m M of isopropyl-1-thio-β-D-[…] (IPTG). After the induction of each expression at 37° C. for 3 hours, since the recombinant LOX-1 was obtained from an insoluble fraction, E. coli was lysed in a buffer containing 6 M guanidine hydrochloride and purified by affinity column chromatography using a Ni-NTA agarose column (manufactured by Qiagen) as the marker of 6×His (solvent: phosphoric acid buffer). Furthermore, each of the elution fractions containing LOX-1 was dialyzed in a 20 mM tris buffer (pH 9.0) and a 8M urea containing buffer, applied to a HiTrap Q column, an anion exchanger, (manufactured by Amersham), and eluted and purified with a linear concentration gradient of NaCl. Each of the fractions containing LOX-1 obtained above was reduced in a buffer containing excess amount of DTT (dithiothreitol), and then intramolecular S-S bonds were unwinded by a redox system using a mixture of oxidized […] low molecular thiol compounds. Each LOX-1 obtained above has a binding ability to the oxidized LDL and will be used as a LOX-1 standard for the following plate assays.
The plate assay was carried out using MaxiSorp Immuno Plate (96-well type, manufactured by NUNC). Each LOX-1 purified above was prepared with a PBS buffer so as to be 5 μg/mL, and 100 μL of the solution was applied to each well. After leaving at 4° C. overnight, each well was washed with 400 μL of a PBS buffer twice (400 μL×2) and 300 μL of a PBS buffer containing 25% BlockAce (manufactured by Dainippon Sumitomo Pharma Co., Ltd.) was applied to each well. After leaving at 4° C. overnight, each well was washed with 400 μL of a PBS buffer twice (400 μL×2), a solution of ethyl pheophorbide a was prepared with a PBS buffer containing 1% bovine serum albumin (BSA) so as to have an appropriate dilution rate, and 100 μL of the solution was applied to each well. After leaving at 4° C. overnight, each well was washed with 400 μL of a PBS buffer three times (400 μL×3), a solution of oxidized LDL was prepared with a PBS buffer so as to be 5 μg/mL, and 100 μL of the solution was applied to eachr well. After leaving at 4° C. overnight, each well was washed with 400 μL of a PBS buffer three times (400 μL×3), a horseradish peroxidase-conjugated anti-apolipoprotein B antibody (manufactured by The Binding Site) was diluted 1000 times with a PBS buffer, and 100 μL of the solution was applied to each well. After leaving at room temperature for 2 hours, each well was washed with 400 μL of a PBS buffer five times (400 μL×5), and 100 μL of a 3,3′,5,5′-tetramethylbenzidine (TMB) peroxidase-enzyme immunoassay (EIA)-substrate-kit reagent (manufactured by Bio-Rad) was applied to each well. After an appropriate reaction period, 50 μL of 2M H2SO4 was applied to each well to stop the reaction. Finally, a LOX-1 antagonist activity (an oxidized LDL binding inhibition rate to LOX-1) was determined by detection at 450 nm.

[3] = rats, intravenous injection; Non-patent Document 17; cited from earlier work
[4] = human; Non-patent Document 15; cited from earlier work
[5] = test system: caveola transport pathway; assay: Uptake of CTB, transport marker of caveola pathway, into COS-1 cells (Example 7); type: cell-based, African green monkey; details: FIG. 6
[6] = target: T1, SR-AII (Homo sapiens, UniProt P21757); assay: DiI-OxLDL uptake into cells expressing SR-AII (Example 7); type: cell-based; details: FIG. 6
T1 construct: expressed in transfected cells; host or cells: COS-1 cells (transient, 48 h), pDEST26
T1 sequence (P21757 1-358 isoform P21757-2): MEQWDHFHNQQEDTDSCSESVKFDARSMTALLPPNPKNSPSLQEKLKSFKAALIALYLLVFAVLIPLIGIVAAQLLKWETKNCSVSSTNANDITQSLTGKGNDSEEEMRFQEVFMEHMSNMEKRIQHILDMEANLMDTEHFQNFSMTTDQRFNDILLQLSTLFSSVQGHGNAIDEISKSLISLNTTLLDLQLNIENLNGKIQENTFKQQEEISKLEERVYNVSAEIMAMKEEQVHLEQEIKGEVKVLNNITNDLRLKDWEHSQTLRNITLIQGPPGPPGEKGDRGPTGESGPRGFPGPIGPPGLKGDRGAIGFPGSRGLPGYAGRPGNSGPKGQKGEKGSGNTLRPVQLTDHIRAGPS
Experimental: As for cDNA cloning of human SR-AII, the full-length sequence (1,077 base pairs) was obtained by PCR using cDNA derived from human normal lien (Invitrogen) as a template. Additionally a CACC sequence was added to 5′-terminal of the upstream primer. The amplified PCR product was inserted to a pENTR/D-TOPO vector (Invitrogen) and transformed into Mach1 cells (Invitrogen). From the obtained transformant, clones supposed to have the plasmid which was correctly inserted with the SR-AII full-length sequence were selected in usual ways such as a colony PCR method, and the plasmid sequence was sequenced. Furthermore, for the plasmid ascertained to have the correct sequence by sequencing, a site-specific recombination reaction to pDEST26 (Invitrogen) as an expression vector for animal cells was carried out according to a manual. The obtained pDEST26 vector having the full-length sequence of […] was transformed into COS-1 cells (Health Science Research Resources Bank), and cultivated for 48 hours to obtain a transient expressed cell line. […] Nystatin (manufactured by Wako) was used as a specific inhibitor of caveola transport.

C=Cc1c(C)c2cc3nc(c4c5[nH]c(cc6nc(cc1[nH]2)C(C)=C6CC)c(C)c5C(=O)[C@@H]4C(=O)OC)[C@@H](CCC(=O)O)[C@@H]3C [pheophorbide a]
ingestion causing photosensitivity disease [1]: ≥ 220 mg/kg | IC50 ([2]; concentration dependence, FIG. 2): ~100 nM | inhibition activity on binding of oxidized LDL to bLOX-1 (ranking among actives) ([2]; final concentration of 16 μM, FIG. 1): high inhibition activities | binding rate of oxidized LDL to bLOX-1 (inhibition of binding) ([2]; final concentration of 16 μM, FIG. 1, control without compounds = 100): inhibit the binding significantly | accumulation to skin [3]: low | main accumulation target [3]: reticuloendothelial system | ingestion causing photosensitivity disease [4]: ≥ 500 mg/day | inhibition of caveola transport pathway (CTB uptake) [5]: inhibits the caveola transport pathway significantly | ability to suppress oxidized LDL uptake by SR-A [6]: the ability to suppress the oxidized LDL uptake by SR-A
